Laboratory results published in patent US9006228B2 (Merck Sharp & Dohme Corp., priority 2011, dated 2015).

The compounds below were run against T1, human GPR119 (Homo sapiens, UniProt Q8TDV5) (assay: Measurement of GPR119 signaling (cAMP assay; LANCE kit or HTRF) in HEK293 cells stably transfected with human GPR119). Settings: agonist-stimulated cAMP in HEK293 cells expressing human GPR119.
T1 sequence (Q8TDV5 1-308 limits assumed): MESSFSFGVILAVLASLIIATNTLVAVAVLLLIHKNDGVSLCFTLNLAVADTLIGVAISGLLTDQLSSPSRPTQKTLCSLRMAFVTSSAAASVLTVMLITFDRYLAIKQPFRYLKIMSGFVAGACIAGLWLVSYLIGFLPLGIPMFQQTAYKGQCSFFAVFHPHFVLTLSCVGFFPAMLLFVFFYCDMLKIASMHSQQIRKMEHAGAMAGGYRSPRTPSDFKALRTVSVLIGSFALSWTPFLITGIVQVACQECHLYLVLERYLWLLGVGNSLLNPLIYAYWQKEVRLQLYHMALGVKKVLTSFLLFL
Type: cell-based
In short: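 LANCE method: cAMP detected with Eu-chelate/biotin-cAMP tracer, 3 h, read at 665 nm, converted via cAMP standards; basal from DMSO, maximum from internal agonist, 4-parameter fit.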

Point of comparison: `O=S(=O)(CCO)c1ccc(COC[C@@H]2C[C@@H]2C2CCN(c3ncc(Cl)cn3)CC2)c(F)c1` [Example 80], EC50 2.3 nM. Against it:
- COC(C)c1cnc(N2CCC([C@H]3C[C@H]3COCc3ccc(S(C)(=O)=O)cc3F)CC2)nc1 (single isomer, unassigned) [Example 126] — 1.5-fold lower, 1.5 nM
- CC(C)(C)OC(=O)N1CCC([C@H]2C[C@H]2COCc2ccc(S(C)(=O)=O)c(F)c2)CC1 [Example 33, tert-butyl 4-[(1R,2R)-2-({[3-fluoro-4-(methylsulfonyl)benzyl]oxy}methyl)cyclopropyl]piperidine-1-carboxylate] — 2.1-fold lower, 1.1 nM
- COCc1cnc(N2CCC([C@H]3C[C@H]3COCc3ccc(-n4cnnn4)c(F)c3)CC2)nc1 [Example 132, 2-(4-((1R,2R)-2-((3-fluoro-4-(1H-tetrazol-1-yl)benzyloxy)methyl)cyclopropyl)piperidin-1-yl)-5-(methoxymethyl)pyrimidine] — 2.1-fold lower, 1.1 nM
- Cc1cnc(N2CCC([C@H]3C[C@H]3COCc3ccc(S(=O)(=O)CCO)cc3F)CC2)nc1 [Example 82] — 5.1-fold higher, 11.7 nM
- CCc1cnc(N2CCC([C@H]3C[C@H]3COCc3ccc(C[C@@H](C)O)cc3)CC2)nc1 [Example 58, (2R)-1-{4-[({(1R,2R)-2-[1-(5-ethylpyrimidin-2-yl)piperidin-4-yl]cyclopropyl}methoxy)methyl]phenyl}propan-2-ol] — 4.8-fold higher, 11 nM
- CC(C)COC(=O)N1CCC([C@H]2C[C@H]2COCc2ccc(S(C)(=O)=O)cc2)CC1 [Example 10, isobutyl 4-[(1R,2R)-2-({[4-(methylsulfonyl)benzyl]oxy}methyl)cyclopropyl]piperidine-1-carboxylate] — 3.6-fold higher, 8.2 nM
- CS(=O)(=O)c1ccc(COC[C@@H]2C[C@@H]2C2CCN(c3ncc(Br)cn3)CC2)c(F)c1 [Example 70] — 12-fold lower, 0.19 nM
- CC(C)(O)c1cnc(N2CCC([C@H]3C[C@H]3COCc3ccc(S(C)(=O)=O)cc3F)CC2)nc1 [Example 75, 2-(2-{4-[(1R,2R)-2-({[2-fluoro-4-(methylsulfonyl)benzyl]oxy}methyl)cyclopropyl]piperidin-1-yl}pyrimidin-5-yl)propan-2-ol] — 11-fold higher, 25 nM
- CCc1cnc(N2CCC([C@H]3C[C@H]3COCc3ccc(-n4ccnn4)cc3)CC2)nc1 [Example 62, 5-ethyl-2-{4-[(1R,2R)-2-({[4-(1H-1,2,3-triazol-1-yl)benzyl]oxy}methyl)cyclopropyl]piperidin-1-yl}pyrimidine] — 7.7-fold lower, 0.3 nM
- CCc1cnc(N2CCC([C@H]3C[C@H]3COCc3ccc(-c4ccnnc4)c(F)c3)CC2)nc1 [Example 115, 4-{4-[({(1R,2R)-2-[1-(5-ethylpyrimidin-2-yl)piperidin-4-yl]cyclopropyl}methoxy)methyl]-2-fluorophenyl}pyridazine] — 2.3-fold lower, 1 nM
- CS(=O)(=O)c1ccc(COC[C@@H]2C[C@@H]2C2CCN(c3ncc(-c4cn[nH]c4)cn3)CC2)nc1 [Example 7] — 6.8-fold higher, 15.6 nM
- CC(C)c1noc(N2CCC([C@H]3C[C@H]3COCc3ccc(S(=O)(=O)C4CC4)cc3)CC2)n1 [Example 25] — 7.8-fold higher, 18 nM
- CCc1cnc(N2CCC([C@H]3C[C@H]3COCc3ccc(-c4nccnc4N)cc3F)CC2)nc1 [Example 107, 2-{4-[({(1R,2R)-2-[1-(5-ethylpyrimidin-2-yl)piperidin-4-yl]cyclopropyl}methoxy)methyl]-3-fluorophenyl}pyrazin-2-amine] — within 1.5-fold, 2 nM
- COCc1cnc(N2CCC([C@H]3C[C@H]3COCc3ccc(CC(=O)N4CC(F)C4)cc3F)CC2)nc1 [Example 148, 2-(3-fluoro-4-((((1R,2R)-2-(1-(5-(methoxymethyl)pyrimidin-2-yl)piperidin-4-yl)cyclopropyl)methoxy)methyl)phenyl)-1-(3-fluoroazetidin-1-yl)ethanone] — 1.5-fold higher, 3.56 nM
- CCS(=O)(=O)c1ccc(COC[C@@H]2C[C@@H]2C2CCN(c3nc(C(C)C)no3)CC2)cc1F [Example 38, 4-[(1R,2R)-2-({[3-fluoro-4-(ethylsulfonyl)benzyl]oxy}methyl)cyclopropyl]-1-(3-isopropyl-1,2,4-oxadiazol-5-yl)piperidine] — 5.7-fold lower, 0.4 nM
- CCS(=O)(=O)c1ccc(COC[C@@H]2C[C@@H]2C2CCN(c3nc(C4CC4)no3)CC2)cc1F [Example 39, 1-(3-cyclopropyl-1,2,4-oxadiazol-5-yl)-4-[(1R,2R)-2-({[3-fluoro-4-(ethylsulfonyl)benzyl]oxy}methyl)cyclopropyl]piperidine] — 3.8-fold lower, 0.6 nM
- CCCc1cnc(N2CCC([C@H]3C[C@H]3COCc3ccc(S(C)(=O)=O)cc3)CC2)nc1 [Example 22, 2-{4-[(1R,2R)-2-({[4-(methylsulfonyl)benzyl]oxy}methyl)cyclopropyl]piperidin-1-yl}-5-propylpyrimidine] — 7.7-fold lower, 0.3 nM
- CC(C)c1noc(N2CCC([C@H]3C[C@H]3COCc3ccc(S(C)(=O)=O)c(F)c3)CC2)n1 [Example 35, 4-[(1R,2R)-2-({[3-fluoro-4-(methylsulfonyl)benzyl]oxy}methyl)cyclopropyl]-1-(3-isopropyl-1,2,4-oxadiazol-5-yl)piperidine] — 11-fold lower, 0.2 nM
- CC(C)(O)CSc1ccc(COC[C@@H]2C[C@@H]2C2CCN(C(=O)OC(C)(C)C)CC2)cc1 [Example 92] — 8.8-fold higher, 20.3 nM
- CCc1cnc(N2CCC([C@H]3C[C@H]3COCc3ccc(S(=O)(=O)CCO)cc3F)CC2)nc1 [Example 83] — 9.1-fold higher, 21 nM
- CC(C)c1noc(N2CCC([C@H]3C[C@H]3COCc3ccc(CC(=O)N(C)C)cc3F)CC2)n1 [Example 137, 2-(3-fluoro-4-((((1R,2R)-2-(1-(3-isopropyl-1,2,4-oxadiazol-5-yl)piperidin-4-yl)cyclopropyl)methoxy)methyl)phenyl)-N,N-dimethylacetamide] — within 1.5-fold, 1.6 nM
